Experimental findings from ChEMBL document CHEMBL5725366, “Oxindole compounds carrying a nitrogen-bound spiro substituent and use thereof for treating vasopressin-related diseases” (2017) are described below.

The assay addresses T1, Vasopressin V1b receptor (Homo sapiens, UniProt P47901).
T1 sequence (P47901 whole entry): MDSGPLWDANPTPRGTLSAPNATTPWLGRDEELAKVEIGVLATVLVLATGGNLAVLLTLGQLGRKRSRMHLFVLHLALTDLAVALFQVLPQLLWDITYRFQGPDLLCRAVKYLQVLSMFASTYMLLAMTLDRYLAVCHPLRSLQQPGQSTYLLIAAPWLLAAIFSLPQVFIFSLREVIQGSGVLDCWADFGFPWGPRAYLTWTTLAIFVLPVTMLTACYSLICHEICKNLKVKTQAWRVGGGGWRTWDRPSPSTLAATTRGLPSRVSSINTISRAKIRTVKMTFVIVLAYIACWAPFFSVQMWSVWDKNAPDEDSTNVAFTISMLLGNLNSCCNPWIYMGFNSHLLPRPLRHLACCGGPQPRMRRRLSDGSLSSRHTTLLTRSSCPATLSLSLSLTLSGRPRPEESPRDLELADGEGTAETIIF
Put plainly: The nonspecific binding was determined with 1 μM AVP (Fluka 94836). All determinations were carried out as duplicate determinations. […] The liquid scintillation measurement took place in a Microbeta TriLux 12 (Wallac).

Usually Ki stands for a dissociation constant, usually derived from enzyme kinetics or from competition with a known ligand.

On to `COc1ccc(S(=O)(=O)N2C(=O)C(c3ccc(F)cc3OC)(N3CC4(CN(C5CCN(C)CC5)C4)C3)C3C=C(C#N)C=CC32)nc1` (stereo not given), for which the Ki result is “in the range around 5.5 nM”.

On to `CCOc1ccc(OC)cc1[C@]1(N2CC3(CN(C4CCN(C)CC4)C3)C2)C(=O)N(S(=O)(=O)c2ccccn2)C2C=CC(C#N)=CC21` (stereo not given in full), for which the Ki result was “in the range around 5.5 nM”.

Consider `CCOc1ccc(OC)c(C2(N3CC4(CN(C5CCN(C)CC5)C4)C3)C(=O)N(S(=O)(=O)c3ccc(OC)cc3)C3C=CC(C#N)=CC32)c1` (stereo not given), for which the Ki result was “in the range around 5.5 nM”.

With `CCOc1ccc(OC)cc1[C@]1(N2CC3(CN(C4CCN(C)CC4)C3)C2)C(=O)N(S(=O)(=O)c2ccc(OC)nc2)C2C=CC(C#N)=CC21` (stereo not given in full), the Ki result was “in the range around 5.5 nM”.

In the case of `COc1ccc(S(=O)(=O)N2C(=O)C(c3ccccc3OC)(N3CC4(CN(N5CCN(C)CC5)C4)C3)C3C=C(C#N)C=CC32)nc1` (racemic), the Ki entry was “in the range around 5.5 nM”.

For `COc1ccc(S(=O)(=O)N2C(=O)C(c3ccccc3OC)(N3CC4(CN(C5CCN(C)CC5)C4)C3)C3C=C(C#N)C=CC32)nc1` (racemic), the Ki entry is “in the range around 5.5 nM”.

As to `CCOc1ccc(OC)cc1C1(N2CC3(CN(N4CCN(C5COC5)CC4)C3)C2)C(=O)N(S(=O)(=O)c2ccc(OC)cn2)C2C=CC(C#N)=CC21` (racemic), the Ki entry is “in the range around 5.5 nM”.

Regarding `CCOc1ccc(OC)c(C2(N3CC4(CN(C5CCN(C6COC6)CC5)C4)C3)C(=O)N(S(=O)(=O)c3ccc(OC)cn3)C3C=CC(C#N)=CC32)c1` (racemic), the Ki entry was “in the range around 5.5 nM”.

Turning to `COc1ccc(S(=O)(=O)N2C(=O)C(c3cccnc3OC(C)(F)F)(N3CC4(CN(C5CCN(C)CC5)C4)C3)C3C=C(C#N)C=CC32)nc1` (racemic), the Ki entry was “in the range around 5.5 nM”.

For the molecule `CCOc1ncccc1C1(N2CC3(CN(N4CCN(C)CC4)C3)C2)C(=O)N(S(=O)(=O)c2ccc(OC)cn2)C2C=CC(C#N)=CC21` (racemic), the Ki entry is “in the range around 5.5 nM”.

Consider `CCOc1ccc(OC)c(C2(N3CC4(CN(C5CCN(C)CC5)C4)C3)C(=O)N(S(=O)(=O)c3ccc(OC)cn3)C3C=CC(C#N)=CC32)c1` (racemic; form 1), for which the Ki entry was “in the range around 5.5 nM”.

With `COc1ccc(S(=O)(=O)N2C(=O)C(c3cccnc3OC)(N3CC4(CN(C5CCN(C)CC5)C4)C3)C3C=C(C#N)C=CC32)nc1` (racemic; form 1), the Ki result is “in the range around 5.5 nM”.

For the molecule `CCOc1ccc(OC)c(C2(N3CC4(CN(C5CCN(C)CC5)C4)C3)C(=O)N(S(=O)(=O)c3ccc(OC)cn3)C3C=CC(C#N)=CC32)c1` (racemic; form 2), the Ki entry was “in the range around 5.5 nM”.

Consider `COc1ccc(S(=O)(=O)N2C(=O)C(c3cccnc3OC)(N3CC4(CN(C5CCN(C)CC5)C4)C3)C3C=C(C#N)C=CC32)nc1` (racemic; form 2), for which the Ki result is “in the range around 5.5 nM”.

Consider `COc1ccc(S(=O)(=O)N2C(=O)C(c3ccccc3OC)(N3CC4(CN(C5CCN(C6COC6)CC5)C4)C3)C3C=C(C#N)C=CC32)nc1` (single isomer, unassigned; (+)), for which the Ki entry is “in the range around 5.5 nM”.
